The source of these data is patent US8563565B2, “Pyrazoloquinoline derivatives” (Eisai R&D Management Co., Ltd., priority 2011, dated 2013).

Structures are written as SMILES.

The target in experiment [1] is T1, human recombinant PDE9 protein (Homo sapiens, UniProt O76083).
T1 construct: His-tag (inferred from the Ni column purification; a myc His-tag vector is named only for the HEK293 expression check); made in house; host or cells: silkworm (pYNG vector, Katakura Industries)
The experiment in a line: PDE9 inhibitory activity test (measurement of PDE9 inhibitory action, [3H]-cGMP). The note with it: PDE9 IC50, human recombinant PDE9, 30° C., 10 min. Type of experiment: biochemical.

Experiment [2] relates to cGMP in the cerebrospinal fluid. The experiment in a line: Effect on rodent cerebrospinal fluid cGMP (mouse). Type of experiment: in vivo, ICR male mice. The following applies: 10 mg/kg p.o., sampling time 0.5 hr. On the procedure:
(§1) 3) Effect on Rodent Cerebrospinal Fluid cGMP
(§2) The test compound was administered to ICR male mice (Charles River Laboratories Japan, Inc.), Sprague-Dawley male rats (SD) (Charles River Laboratories Japan, Inc.) or Long-Evans male rats (LE) (Institute for Animal Reproduction), and the cerebrospinal fluid was then collected under pentobarbital anesthesia and stored at −20° C. cGMP in the cerebrospinal fluid was measured in accordance with the acetylation EIA procedure of cGMP EIA kit (GE Healthcare) or the non-acetylation procedure of cGMP EIA kit (Cayman) The result was an increase (C) in the amount of cGMP of the test compound-administered group (B) relative to the amount of cGMP of the vehicle-administered group (A), and was calculated using the following formula cGMP increase(C)=[(B)−(A)]/(A)×100(%)

Experiment [3] shares this test system. The experiment in a line: Effect on rodent cerebrospinal fluid cGMP (rat). Type of experiment: in vivo. The note with it: Rattus norvegicus, po, 1 h, read-out: % CSF cGMP increase from vehicle control. On the procedure:
as §1, §2

Another experiment has as its system cGMP in the hippocampus. The experiment in a line: Effect on rodent hippocampal cGMP. The class given is in vivo, rat. The note with it: Rattus norvegicus, po, 1 h, read-out: % hippocampal cGMP increase from vehicle control. As to the method: 4) Effect on Rodent Hippocampal cGMP
The test compound was administered to Sprague-Dawley male rats (Charles River Laboratories Japan, Inc.) or Long-Evans male rats (Institute for Animal Reproduction) and then the animals were sacrificed with microwave under pentobarbital anesthesia, and the hippocampus was extracted. After measuring the wet weight, the hippocampus was frozen with liquid nitrogen and stored at −80° C. In the measurement of cGMP in the hippocampus, a 0.5 M perchloric acid/1 mM EDTA solution was added at 5% (w/v) based on the wet weight, and the mixture was homogenized. After the homogenization, the homogenate was centrifuged (10000 rpm, 15 min), and the supernatant was collected. The collected supernatant was neutralized with a 2 M potassium bicarbonate solution and centrifuged (13000 rpm, 10 min). The cGMP concentration in the supernatant was measured in accordance with the non-acetylation EIA procedure of cGMP EIA kit (GE Healthcare). The result was an increase (C) in the amount of cGMP of the test compound-administered group (B) relative to the amount of cGMP of the vehicle-administered group (A), and was calculated using the following formula. cGMP increase(C)=[(B)−(A)]/(A)×100(%)

T1 sequence (O76083 whole entry): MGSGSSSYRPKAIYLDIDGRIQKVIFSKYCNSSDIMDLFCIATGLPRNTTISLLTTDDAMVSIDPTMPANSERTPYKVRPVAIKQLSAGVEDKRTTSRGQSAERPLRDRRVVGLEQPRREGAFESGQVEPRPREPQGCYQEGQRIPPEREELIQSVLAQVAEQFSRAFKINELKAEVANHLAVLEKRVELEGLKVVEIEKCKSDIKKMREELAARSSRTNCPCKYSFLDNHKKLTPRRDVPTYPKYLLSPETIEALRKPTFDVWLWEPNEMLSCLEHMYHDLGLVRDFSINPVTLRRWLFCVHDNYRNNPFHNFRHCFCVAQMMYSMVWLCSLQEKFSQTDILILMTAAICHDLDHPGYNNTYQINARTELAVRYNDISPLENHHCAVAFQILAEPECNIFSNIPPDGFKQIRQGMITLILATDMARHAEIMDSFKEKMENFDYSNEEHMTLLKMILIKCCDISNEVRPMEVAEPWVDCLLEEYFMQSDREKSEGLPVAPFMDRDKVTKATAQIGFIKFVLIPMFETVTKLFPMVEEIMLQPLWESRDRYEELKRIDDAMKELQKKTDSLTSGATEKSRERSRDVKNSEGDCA

In the case of `Cc1cc(C)c(-c2ccc3c(c2)[nH]c(=O)c2cnn(C4CCOCC4)c23)c(C)n1` [Example 2, 7-(2,4,6-trimethylpyridin-3-yl)-1-(tetrahydro-2H-pyran-4-yl)-1H-pyrazolo[4,3-c]quinolin-4(5H)-one], the IC50 (as a rule, the point on the concentration scale where inhibition reaches its midpoint) in experiment [1] worked out at 25 nM. For the same compound, the “% CSF cGMP increase from vehicle control” value in experiment [2] was found to be 110%.

For `COc1cc(C)c(-c2cc3[nH]c(=O)c4cnn([C@H]5CCOC5)c4c3cc2F)c(C)n1` [Example 55, (S)-8-fluoro-7-(6-methoxy-2,4-dimethylpyridin-3-yl)-1-(tetrahydrofuran-3-yl)-1H-pyrazolo[4,3-c]quinolin-4(5H)-one], the IC50 in experiment [1] came to 17.5 nM. Further, the figures for the change in vivo at 10 mg/kg (in experiment [3]; in the experiment on cGMP in the hippocampus) were 323% and 17%, respectively.
